Columns and labels:
ATF6 = assay: Western blot of ATF6 cleavage, hypoxic HT1080 cells; assay type: cell-based, human; conditions: 2.5 μM
Method: (§1) Cells (2×10^6) were cultured in 10-cm dishes, collected using a cell scraper at 4° C., and lysed by addition of 150 μl cell lysis buffer [50 mM Tris pH 7.4, 150 mM NaCl, 10% glycerol, 0.5% Triton X-100. 0.5% NP-40, 2 mM Na3VO4, 20 mM beta-glycerophosphate, 10 mM NaF, 1 mM DTT, 1 mM PMSF). Lysates were centrifuged for 5 min at 10,000×g, and proteins (˜40 μg) were resolved by SDS-PAGE followed by semi-dry transfer to nitrocellulose membranes. Membranes were blocked in TBS-5% milk supplemented with 0.1% Tween-20. The blots were then probed overnight with relevant antibodies, washed, and incubated for 2 hours with species-specific secondary antibodies conjugated to horseradish peroxidase. After washing in block solution, immunoreactive material was detected by enhanced chemiluminescence (SuperSignal West Dura Extended, Pierce, Inc., Rockville, Ill.).
A. Effect of irestatin 9389 on PERK and ATF6 pathways. […] Protein lysates were analyzed by Western blot analysis using antisera specific for ATF6 (top), CHOP/GADD153 (middle) or actin (bottom). […] Cells were harvested, counted, and allowed to grow under normal culture conditions for 11-12 days. […] D. Quantification of clonogenic survival assay. […] F. Quantification of TUNEL-positive cells. […] Cells were harvested at the indicated times and counted by hemocytometer. Values represent the mean calculated from triplicate experiments+/−SEM. […]

phospho-JNK1 = assay: Western blot of phospho-JNK1 under ER stress, HT1080 cells; assay type: cell-based, human; conditions: irestatins 2.5 μM, 2 hour preincubation; Tm 4 μg/ml, 1.5 hrs
Method: as §1
HT1080 cells were exposed to DMSO vehicle (lane 1), irestatin 9389 (2.5 μM; lane 2) for 16 hours or Tm (5 μg/ml; lane 3) for 8 hours. Following treatments, cells were harvested, lysed, and analyzed by immunoblotting using anti-Grp78 antibody (top) or anti-actin (bottom) as a loading control. […] Cell lysates were analyzed by Western immunoblotting using anti-IRE1α (bottom) or anti-phospho-IRE1α antibodies (top). […] Lysates were analyzed by Western blot using antisera specific for phospho-JNK1 (top) or total JNK1 (bottom). […]

For `Cc1csc(NC(=O)CSc2nc3c(c(C(F)(F)F)c2C#N)CCC3)n1` [Compound 9389], the “proteolytic cleavage of ATF6 into active 50 kDa form” value (ATF6) was “significantly increased the proteolytic cleavage of ATF6” and the “phosphorylation of JNK1 during Tm-induced ER stress” value (phospho-JNK1) was “failed to block the phosphorylation of JNK1”.
